Literature values in US20240082270A1 (priority 2021, published 2024).
Like-named read-outs stand apart in the source and are kept apart here.

How the values were obtained:
[1] = animal studies
[2] = mouse, in vivo
[3] = stress and anxiety
[4] = target: acylglycerol lipase, MAG1 (Homo sapiens, UniProt Q99685); details: reversible mechanism
CB2R [5] = target: CB2R (Homo sapiens, UniProt P34972)
[6] = if stored properly
[7] = tested on: methicillin resistant Staphylococcus aureus (MRSA)
[8] = mouse, in vivo; remark: listed apart in the source
[9] = rat, in vivo
[10] = dog; for adverse effects monitored by blood testing: 2 weeks of high twice daily dosing
mouse bladder = details: induced by acetylcholine
mice = details: inhaled from ambient air
[11] = target: SARS-CoV-2 main proteases (Severe acute respiratory syndrome coronavirus 2, UniProt P0DTD1)
SARS-CoV-2 spike protein [12] = target: T1, SARS-CoV-2 spike protein (Severe acute respiratory syndrome coronavirus 2, UniProt P0DTC2)
[13] = not given; remark: listed apart in the source
CB2R [14] = target: T2, CB2R (Mus musculus, UniProt P47936); details: oral, <5 mg-kg^−1
T2 construct: host or cells: wild-type mice, in vivo (oral dosing)

CB1R = CB1R (Homo sapiens, UniProt P21554)
human CBR = details: rather non-selectively
mast cells = details: higher concentration
melanoma = details: inhibition of E2F1 transcription
[15] = not given; remark: listed apart in the source
protein kinase B = details: oxidative muscles
SARS-CoV-2 [16] = details: lung epithelial cells
[17] = tested on: pseudovirus expressing the SARS-CoV-2 spike protein
SARS-CoV-2 spike protein [18] = target: T1, SARS-CoV-2 spike protein; details: allosteric as well as orthosteric ligands
[19] = skin models
[20] = after 30 min ingestion
[21] = chronic or single dose, versus control group without piperine
SARS-CoV-2 [22] = details: cohort of human patients previously taking CBD
[23] = pharmaceutical CBD, up to 1500 mg/day for 6 weeks
[24] = after oral CBD in rats
5-HT1A receptor = 5-HT1A receptor (Homo sapiens, UniProt P08908)
[25] = emulsified, small dispersed molecules
[26] = not given; remark: listed apart in the source
[27] = Lennox-Gastaut and Dravet syndrome
[28] = tested on: store-operated calcium (Ca2+) entry (SOCE); details: human T lymphocytes

5-HT1A receptor, sequence (P08908 whole entry): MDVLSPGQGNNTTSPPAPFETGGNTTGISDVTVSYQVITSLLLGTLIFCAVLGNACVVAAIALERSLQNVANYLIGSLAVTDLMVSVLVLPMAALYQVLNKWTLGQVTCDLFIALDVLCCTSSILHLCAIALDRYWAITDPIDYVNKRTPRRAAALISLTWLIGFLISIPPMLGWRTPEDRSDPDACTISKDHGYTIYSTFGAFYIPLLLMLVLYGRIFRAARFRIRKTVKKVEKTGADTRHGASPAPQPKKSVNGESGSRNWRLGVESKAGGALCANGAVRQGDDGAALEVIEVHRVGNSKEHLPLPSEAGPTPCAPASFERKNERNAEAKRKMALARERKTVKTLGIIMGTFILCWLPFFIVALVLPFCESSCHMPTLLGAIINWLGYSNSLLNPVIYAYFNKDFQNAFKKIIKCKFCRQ
acylglycerol lipase, MAG1, sequence (Q99685 whole entry): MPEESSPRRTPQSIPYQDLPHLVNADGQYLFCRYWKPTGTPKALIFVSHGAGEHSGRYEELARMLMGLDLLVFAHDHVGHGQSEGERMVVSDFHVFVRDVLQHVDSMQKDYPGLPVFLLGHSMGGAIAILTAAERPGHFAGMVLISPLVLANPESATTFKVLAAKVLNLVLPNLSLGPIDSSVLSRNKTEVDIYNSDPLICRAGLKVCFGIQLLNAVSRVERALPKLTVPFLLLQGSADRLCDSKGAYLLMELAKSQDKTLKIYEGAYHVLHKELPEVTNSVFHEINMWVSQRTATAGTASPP
CB1R, sequence (P21554 whole entry): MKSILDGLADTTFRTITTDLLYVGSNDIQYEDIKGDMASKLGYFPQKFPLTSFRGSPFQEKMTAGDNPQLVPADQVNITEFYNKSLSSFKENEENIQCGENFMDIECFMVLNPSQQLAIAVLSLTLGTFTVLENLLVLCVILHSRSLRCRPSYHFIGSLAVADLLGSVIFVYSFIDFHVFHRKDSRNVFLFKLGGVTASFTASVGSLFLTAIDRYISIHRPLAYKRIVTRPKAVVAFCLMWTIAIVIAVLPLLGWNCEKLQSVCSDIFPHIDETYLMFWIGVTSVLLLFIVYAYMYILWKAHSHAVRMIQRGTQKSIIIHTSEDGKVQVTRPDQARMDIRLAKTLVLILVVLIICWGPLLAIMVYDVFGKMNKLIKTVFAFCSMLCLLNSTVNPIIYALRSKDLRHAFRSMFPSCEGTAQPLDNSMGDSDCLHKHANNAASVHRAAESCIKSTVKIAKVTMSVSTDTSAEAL
CB2R (Homo sapiens, UniProt P34972), sequence (P34972 whole entry): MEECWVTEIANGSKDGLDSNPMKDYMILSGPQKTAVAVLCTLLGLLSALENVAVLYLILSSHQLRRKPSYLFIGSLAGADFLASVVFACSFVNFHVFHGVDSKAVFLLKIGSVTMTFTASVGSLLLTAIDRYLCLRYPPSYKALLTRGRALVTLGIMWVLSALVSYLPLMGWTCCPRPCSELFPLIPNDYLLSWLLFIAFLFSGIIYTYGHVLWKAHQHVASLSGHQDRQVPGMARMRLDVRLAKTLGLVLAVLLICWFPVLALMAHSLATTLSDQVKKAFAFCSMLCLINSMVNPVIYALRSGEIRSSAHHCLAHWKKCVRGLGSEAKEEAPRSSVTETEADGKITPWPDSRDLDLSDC
T2 sequence (P47936 whole entry): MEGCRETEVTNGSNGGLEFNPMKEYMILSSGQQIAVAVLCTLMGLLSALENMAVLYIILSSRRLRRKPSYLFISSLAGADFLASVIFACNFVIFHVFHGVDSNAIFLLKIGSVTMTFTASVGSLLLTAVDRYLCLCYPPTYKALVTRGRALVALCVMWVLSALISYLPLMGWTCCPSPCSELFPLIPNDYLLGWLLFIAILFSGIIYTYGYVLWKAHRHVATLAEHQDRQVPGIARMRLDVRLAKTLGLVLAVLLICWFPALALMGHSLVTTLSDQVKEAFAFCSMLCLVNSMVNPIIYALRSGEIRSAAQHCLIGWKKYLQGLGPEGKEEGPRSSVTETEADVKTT

In the case of `CCCc1cc(O)c(C/C=C(\C)CCC=C(C)C)c(O)c1` [CBGV, cannabigerovarin], the “time of peak brain concentrations” value [1] is given as 30 min and the “effect on hyperthermia-induced seizures” value [2] is given as “Neither CBG nor CBGV affected thresholds”.
In the case of `CCCCCc1cc(O)c2c(c1)OC(C)(CCC=C(C)C)C=C2` (centres unmarked) [CBC, cannabichromene], the “potency relative to CBD” value [3] is listed as “up to 10 times”.
For `COC(=O)[C@]1(C)CC[C@]2(C)CC[C@]3(C)C4=CC=C5C(=CC(=O)C(O)=C5C)[C@]4(C)CC[C@@]3(C)[C@@H]2C1` [pristimerin], the IC50 [4] is listed as 93 nM.
For `CCCCCc1cc(O)c(C/C=C(\C)CC/C=C(\C)CCC=C(C)C)c(O)c1` [Sesquicannabigerol], the “affinity at CB2R higher than CBG” value (CB2R [5]; relative to CBG) is given as 5 fold.
In the case of `C[C@H]1CC[C@@H](C(C)(C)O)CC2=C1CC[C@@H]2C` [Guaiol], the “Shelf Life” value [6] is listed as ≥ 12 month(s).
In the case of `CCCCCc1cc(OC(=O)CCC(=O)O)c2c(c1)OC(C)(C)[C@@H]1CCC(C)=C[C@@H]21` [THC-HS, THC-hemisuccinate], the bioavailability (rectal) is given as 70-80%.
In the case of `CCCCCc1cc(O)c(C/C=C(\C)CCC=C(C)C)c(O)c1` [CBG, cannabigerol], the “efficacy in murine systemic infection model” value ([7]; MRSA) is given as “demonstrate in vivo efficacy”, the MRSA biofilm formation ([7]; mouse, in vivo) is given as “represses MRSA biofilm formation” and the rotarod performance [8] is given as “significantly recovered their rotarod performance”. For the same compound, the appetite [9] was “increased appetite”, the “adverse effects monitored by blood testing” value [10] was “no adverse effects” and the bioavailability (oral ingestion) was 13-19%. For the same compound, the bioavailability (sublingual administration) was 13-56%, the bioavailability (topical applications) was 5-10% and the “ranked potency of detrusor contraction inhibition” value (mouse bladder) was “CBG=THCV>CBD>CBDV, but not CBC”. The “time of peak brain concentrations” value [1] was 120 min, the “effect on hyperthermia-induced seizures” value [2] was “Neither CBG nor CBGV affected thresholds” and the acetylcholine-induced contractions (human bladder) was “reduce acetylcholine-induced contractions”.
For pinene, the increase in motility (mice) is listed as 13.77%.
In the case of `Nc1ncnc2c1ncn2[C@@H]1O[C@H](CO)C[C@H]1O` [Cordycepin, 3′-deoxyadenosine], the binding affinity [11] is listed as −180.5 and the binding affinity (SARS-CoV-2 spike protein [12]) is listed as −145.3.
For `C=C1CC/C=C(\C)CC[C@@H]2[C@@H]1CC2(C)C` [β-caryophyllene], the Ki (CB2R [5]; CB2R, full agonist) is given as 155 nM, the Tmax ([13]; one single oral administration) is given as > 1 h and the maximal onset ([13]; orally administered) is given as 1 h. For the same compound, the “anti-inflammatory and analgesic effects” value (CB2R [14]) was “strong anti-inflammatory and analgesic effects in wild-type mice but not in CB2 receptor knockout mice”.
In the case of `C=C[C@H](O)C#CC#CC/C=C\CCCCCCC` [falcarinol], the Ki (CB1R; read-out: Ki value, CB1R) is given as < 1000 nM.
For `O=C(O[C@@H]1Cc2c(O)cc(O)cc2O[C@@H]1c1cc(O)c(O)c(O)c1)c1cc(O)c(O)c(O)c1` [epigallocatechin β-gallate], the “concentrations at which binding to human CBR was shown” value (human CBR) is given as “high μM concentrations”.
For `C=CCc1ccc(O)c(OC)c1` [Eugenol], the “concentration leading to translocation of phospho-Ser15-p53 into mitochondria” value (mast cells) is given as 700 µmol/L, the concentration inducing apoptosis (HL-60 leukemia cells) is given as 40 µmol/L and the “concentration inhibiting melanoma growth” value (melanoma) is given as 0.5 to 2.5 µmol⁻¹.
For `CCCCCc1cc(OC)c(C/C=C(\C)CCC=C(C)C)c(OC(=O)CCN2CCOCC2)c1` [HUM-234, Monomethoxycannabigeroyl-β-morpholinoproprionate], the obesity ([15]; mice fed a high-fat diet (HFD)) is listed as “prevents obesity” and the TNF-α levels ([15]; mouse, in vivo) is listed as “increases TNF-α at higher doses”.
In the case of `C[C@@H](O)CC(=O)O` [R-BHB], the “inhibition of insulin-mediated phosphorylation of protein kinase B” value (protein kinase B) is listed as 50%.
In the case of `C=CC(C)(O)CCC=C(C)C` (centres unmarked) [linalool], the reduction in motility (mice) is given as 73%.
For `CCCc1cc(O)c(C/C=C(\C)CCC=C(C)C)c(O)c1C(=O)O` [CBGVA, cannabigerovarinic acid], the “time of peak brain concentrations” value [1] is given as 15 min.
For `C=C(C)[C@@H]1CCC(CO)=C[C@H]1c1c(O)cc(CCCCC)cc1O` [7-OH-CBD], the SARS-CoV-2 replication (SARS-CoV-2 [16]) is given as “block SARS-CoV-2 replication”.
In the case of `C=C(C)[C@@H]1CCC(C)=C[C@H]1c1c(O)cc(CCCCC)c(C(=O)O)c1O` [CBDA], the “entry of live SARS-CoV-2 into cells” value (live SARS-CoV-2) is listed as “prevented entry”, the “infection of human epithelial cells by pseudovirus” value [17] is listed as “prevented infection” and the “affinity for the spike protein” value (SARS-CoV-2 spike protein [18]) is listed as “micromolar affinity”.
For `CC(C)=CCC[C@@H](C)[C@@H]1CC[C@]2(C)C3=C(CC[C@@]12C)[C@@]1(C)CC[C@H](O)C(C)(C)[C@@H]1CC3` [euphol], the IC50 ([4]; read-out: IC50) is listed as 315 nM.
In the case of `CC[C@H](CC[C@@H](C)[C@H]1CC[C@H]2[C@@H]3CC=C4C[C@@H](O)CC[C@]4(C)[C@H]3CC[C@]12C)C(C)C` [β-sitosterol], the “reduction of chronic edema” value [19] is listed as 41% and the “reduction of topical inflammation” value [19] is listed as 65%.
In the case of `Oc1cc(O)c2c(c1)O[C@H](c1cc(O)c(O)c(O)c1)[C@H](O)C2` [(−)-epigallocatechin], the “concentrations at which binding to human CBR was shown” value (human CBR) is listed as “high μM concentrations”.
For `CC(C)=CCC/C(C)=C/CO` [Geraniol], the bioavailability [20] is given as 92%.
In the case of `C=C(C)[C@H]1CC=C(C)CC1` [limonene], the increase in motility (mice) is given as 35.25%.
For `O=C(/C=C/C=C/c1ccc2c(c1)OCO2)N1CCCCC1` [piperine, Piperine], the “increase in oral bioavailability of CBD” value [21] is given as ~2.5 fold.
In the case of `C=C(C)[C@@H]1CCC(C)=C[C@H]1c1c(O)cc(CCC)c(C(=O)O)c1O` [CBDVA], the “time of peak brain concentrations” value [1] is given as 15 min.
In the case of `C=C(C)[C@@H]1CCC(C)=C[C@H]1c1c(O)cc(CCCCC)cc1O` [CBD, Cannabidiol], the SARS-CoV-2 infection incidence (SARS-CoV-2 [22]) is listed as “significantly lower”, the physical withdrawal symptoms [23] is listed as “No physical withdrawal symptoms were observed” and the “time of peak brain concentration” value [24] is listed as 6 h. The “time of peak serum level” value [24] was 1 h, the “ranked potency of detrusor contraction inhibition” value (mouse bladder) was “CBG=THCV>CBD>CBDV, but not CBC” and the “concentration that synergistically enhances other 5-HT1A receptor agonists” value (5-HT1A receptor) was 100 nM. The “concentrations at which the 5-HT1A receptor is activated” value (5-HT1A receptor) was “above 10 μM”, the sublingually absorbed [25] was “up to 35%” and the “degradation, average values” ([26]; effect of light, after 30 days) was “up to 15%”. The “degradation, average values” ([26]; stored at 37° C. for 30 days) was “up to 20%”, the “reduction in seizures rate” value [27] was 50% and the SARS-CoV-2 replication (SARS-CoV-2 [16]) was “block SARS-CoV-2 replication”.
In the case of `CCCCCc1cc(O)c(C/C=C(\C)CCC=C(C)C)c(O)c1C(=O)O` [CBGA, cannabigerolic acid], the “adverse effects monitored by blood testing” value [10] is given as “no adverse effects”, the oral absorption ([10]; with or without food) is given as “orally absorbed significantly better than CBG” and the “entry of live SARS-CoV-2 into cells” value (live SARS-CoV-2) is given as “prevented entry”. For the same compound, the “potency against SOCE (blocking CRAC currents)” value [28] was “dose-dependent high potency”, the “infection of human epithelial cells by pseudovirus” value [17] was “prevented infection” and the “time of peak brain concentrations” value [1] was 45 min. For the same compound, the “effect on hyperthermia-induced seizures” value [2] was “more effective for seizures triggered by a febrile event than CBD” and the “affinity for the spike protein” value (SARS-CoV-2 spike protein [18]) was “micromolar affinity”.
In the case of `CCCc1cc(O)c2c(c1)OC(C)(C)[C@@H]1CCC(C)=C[C@@H]21` [THCV, tetrahydrocannabivarin], the “ranked potency of detrusor contraction inhibition” value (mouse bladder) is listed as “CBG=THCV>CBD>CBDV, but not CBC”, the “time of peak brain concentrations” value [1] is listed as 30 min and the “effect on hyperthermia-induced seizures” value [2] is listed as “resulted in seizures at lower temperature thresholds”.
For `C=C(C)[C@@H]1CCC(C)=C[C@H]1c1c(O)cc(CCC)cc1O` [CBDV, Cannabidivarin], the “ranked potency of detrusor contraction inhibition” value (mouse bladder) is given as “CBG=THCV>CBD>CBDV, but not CBC” and the “time of peak brain concentrations” value [1] is given as 30 min.
In the case of `CCCCC/C=C\C/C=C\C/C=C\C/C=C\CCCCOC(CO)CO` [2-AGE, 2-arachidonyl glyceryl ether], the Ki (CB1R; read-out: Ki) is listed as 21.2 nM.
